Measured values from ChEMBL document CHEMBL1136286, “Unexpected enhancement of thrombin inhibitor potency with o-aminoalkylbenzylamides in the P1 position” (Bioorg Med Chem Lett, 2003).

Experiments:
Homo sapiens = species on record: Homo sapiens; assay: Concentration needed to double the activated partial thromboplastin time in human plasma; type: functional
Prothrombin = Prothrombin (Homo sapiens, UniProt P00734); assay: Inhibitory constant evaluated against thrombin (Factor IIa)
Serine protease 1 [1] = target: T1, Serine protease 1 (Homo sapiens, UniProt P07477); assay: Inhibitory constant evaluated against trypsin
T1 sequence (P07477 whole entry): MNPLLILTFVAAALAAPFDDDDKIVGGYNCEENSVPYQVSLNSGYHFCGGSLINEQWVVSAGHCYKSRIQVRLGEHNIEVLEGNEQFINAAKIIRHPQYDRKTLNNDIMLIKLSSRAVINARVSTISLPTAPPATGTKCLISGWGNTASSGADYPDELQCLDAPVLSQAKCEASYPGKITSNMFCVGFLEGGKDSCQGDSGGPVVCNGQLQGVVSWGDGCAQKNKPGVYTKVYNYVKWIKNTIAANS

Serine protease 1 [2] = target: T1, Serine protease 1; assay: Ratio of inhibitory constant evaluated against trypsin to that of thrombin (Factor IIa)

Row | Compound | Ki (Prothrombin) [nM] | Ki (Serine protease 1 [1]) [µM] | Selectivity ratio (Serine protease 1 [2]) | 2x APTT (Homo sapiens) [µM]
1 | Cc1ccc(NS(=O)(=O)Cc2ccccc2)c(=O)n1CC(=O)NCc1ccccc1N | 470 | > 1000 | > 2130 | 
2 | Cc1cc(CNC(=O)[C@@H]2CCCN2C(=O)[C@H](N)C(c2ccccc2)c2ccccc2)c(C)cc1CN | 39 |  |  | 
3 | Cc1nc(N)ccc1CNC(=O)Cn1c(C)cnc(NCCc2ccccc2)c1=O [L-375378] |  |  | 1910 | 0.41
4 | N[C@H](Cc1ccccc1)C(=O)N1CCC[C@H]1C(=O)NCc1ccccc1 |  | > 1000 | > 217 | 
5 | NCc1ccc(Cl)cc1CNC(=O)Cn1c(Cl)cnc(NCC(F)(F)c2cccc[n+]2[O-])c1=O | 0.0034 | 0.415 |  | 0.13
6 | NCc1ccccc1CNC(=O)[C@@H]1CCCN1C(=O)[C@H](N)Cc1ccccc1 | 313 | 106 | 339 | 
7 | Cc1ccc(NS(=O)(=O)Cc2ccccc2)c(=O)n1CC(=O)NCc1ccccc1 |  | 466 | 3580 | 
8 | Cc1ccc(NS(=O)(=O)Cc2ccccc2)c(=O)n1CC(=O)NCc1cccc(CN)c1 | 490 | 23 | 46.9 | 
9 | Cc1ccc(NS(=O)(=O)Cc2ccccc2)c(=O)n1CC(=O)NCc1ccc(CN)cc1 | 49 | 1.3 | 26.5 | 
10 | Cc1nc(N)ccc1CNC(=O)Cn1c(C)ccc(NS(=O)(=O)Cc2ccccc2)c1=O [L-374087] |  |  | 6400 | 0.22
11 | N[C@H](Cc1ccccc1)C(=O)N1CCC[C@H]1C(=O)NCc1cccc(Cl)c1 | 250 | 89 | 356 | 
12 | NCCc1ccc(Cl)cc1CNC(=O)[C@@H]1CCCN1C(=O)[C@H](N)Cc1ccccc1 | 62 | 252 | 4060 | 

Second part, led by results:

Row | Ki (Prothrombin) [nM] | Ki (Serine protease 1 [1]) [µM] | Selectivity ratio (Serine protease 1 [2]) | Compound | 2x APTT (Homo sapiens) [µM]
13 | 5.2 | 67 | 12900 | Cc1ccc(NS(=O)(=O)Cc2ccccc2)c(=O)n1CC(=O)NCc1ccccc1CN | 0.44
14 | 3.3 | 6.2 | 1910 | NCc1ccc(Cl)cc1CNC(=O)[C@@H]1CCCN1C(=O)[C@H](N)Cc1ccccc1 | 0.34
15 | 0.13 | 1.6 | 12300 | Cc1cnc(NCCc2ccccc2)c(=O)n1CC(=O)NCc1cc(Cl)ccc1CN | 0.41
16 | 4.1 | 437 | 107000 | Cc1ccc(NS(=O)(=O)Cc2ccccc2)c(=O)n1CC(=O)NCc1ccccc1CCN | 0.53
17 | 6.6 | 14.2 |  | COc1ccc2cc(S(=O)(=O)NC(Cc3ccc(CN)cc3)C(=O)N(C)C3CCCC3)ccc2c1 (configuration not stated) | 
18 | 0.05 | 37 | 740000 | Cc1ccc(NS(=O)(=O)Cc2ccccc2)c(=O)n1CC(=O)NCc1cc(Cl)ccc1CCN | 0.18
19 | 7.1 | 20 | 2790 | Cc1ccc(NS(=O)(=O)Cc2ccccc2)c(=O)n1CC(=O)NCc1cccc(Cl)c1 | 2.8
20 | 3.3 | 6.3 |  | CN(C(=O)C(Cc1ccc(CN)cc1)NS(=O)(=O)c1ccc2c(c1)CCCCC2)C1CCCC1 (configuration not stated) | 
21 | 0.046 | 1.85 | 40200 | Cc1ccc(NS(=O)(=O)Cc2ccccc2)c(=O)n1CC(=O)NCc1cc(Cl)ccc1CN | 0.16
